Measured values reported in publication PMC11102520, “Design, synthesis, molecular docking study, and α-glucosidase inhibitory evaluation of novel hydrazide–hydrazone derivatives of 3,4-dihydroxyphenylacetic acid” (Scientific Reports, 2024).

Experiments:
[1] = molecular target: α-glucosidase (Saccharomyces cerevisiae, UniProt P53341); experiment: In vitro α-glucosidase inhibition assay (p-nitrophenyl glucopyranoside substrate); type: biochemical; conditions: for inhibition at 500 µM: test compound 0.5mM, read-out: Percent Inhibition (0.5mM)
Sequence of α-glucosidase (P53341 whole entry): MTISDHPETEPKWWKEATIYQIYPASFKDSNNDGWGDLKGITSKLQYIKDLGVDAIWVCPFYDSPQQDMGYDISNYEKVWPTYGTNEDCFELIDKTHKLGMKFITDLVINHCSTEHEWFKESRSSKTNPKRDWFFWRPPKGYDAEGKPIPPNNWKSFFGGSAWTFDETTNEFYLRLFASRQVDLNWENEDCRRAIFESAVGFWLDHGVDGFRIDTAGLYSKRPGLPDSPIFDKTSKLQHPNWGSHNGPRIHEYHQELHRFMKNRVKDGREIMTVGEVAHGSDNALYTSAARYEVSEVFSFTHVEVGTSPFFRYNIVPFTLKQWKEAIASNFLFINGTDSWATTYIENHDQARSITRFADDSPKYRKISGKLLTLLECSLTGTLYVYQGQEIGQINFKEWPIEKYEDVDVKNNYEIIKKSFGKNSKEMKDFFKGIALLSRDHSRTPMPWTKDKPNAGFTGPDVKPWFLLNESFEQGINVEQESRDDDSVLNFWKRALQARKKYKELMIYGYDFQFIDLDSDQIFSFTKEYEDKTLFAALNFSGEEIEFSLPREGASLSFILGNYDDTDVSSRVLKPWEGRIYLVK
Method: The reaction was initiated by the addition of 10 μL of 0.5mM substrate(p-nitrophenyl glucopyranoside, Sigma Inc.). […] All experiments were carried out in triplicates (mean ± SEM, n=3).

SMILES	inhibition at 500 µM [1] [%]	melting point [°C]	α-glucosidase inhibitory activity (in words) [1]
COc1ccccc1C=NNC(=O)Cc1ccc(O)c(O)c1 [Compound 12, 2-(3,4-dihydroxyphenyl)-N'-(2-methoxybenzylidene)acetohydrazide]	96.7	190 to 193	
COc1ccc(C=NNC(=O)Cc2ccc(O)c(O)c2)cc1OC [Compound 14, 2-(3,4-dihydroxyphenyl)-N'-(3,4-dimethoxybenzylidene)acetohydrazide]	92.2	210	
CN(C)c1ccc(C=NNC(=O)Cc2ccc(O)c(O)c2)cc1 [Compound 15, (3,4-dihydroxyphenyl)-N'-(4-(dimethylamino)benzylidene)acetohydrazide]	92.8	203	
O=C(Cc1ccc(O)c(O)c1)NN=Cc1cccc2ccccc12 [Compound 17, 2-(3,4-dihydroxyphenyl)-N'-(naphthalen-1-ylmethylene)acetohydrazide]	72	210	
COc1ccc(C=NNC(=O)Cc2ccc(O)c(O)c2)c(O)c1 [Compound 8, 2-(3,4-dihydroxyphenyl)-N'-(2-hydroxy-4-methoxybenzylidene)acetohydrazide]	91	206	
CSc1ccc(C=NNC(=O)Cc2ccc(O)c(O)c2)cc1 [Compound 28, 2-(3,4-dihydroxyphenyl)-N'-(4-(methylthio)benzylidene)acetohydrazide]		198	
O=C(Cc1ccc(O)c(O)c1)NN=Cc1ccccc1[N+](=O)[O-] [Compound 24, 2-(3,4-dihydroxyphenyl)-N'-(2-nitrobenzylidene)acetohydrazide]	82.7	204	
O=C(Cc1ccc(O)c(O)c1)NN=Cc1ccc(O)c(O)c1 [Compound 3, N'-(3,4-dihydroxybenzylidene)-2-(3,4-dihydroxyphenyl)acetohydrazide]	91.3	212	
O=C(Cc1ccc(O)c(O)c1)NN=Cc1ccc(O)cc1 [Compound 2, 2-(3,4-dihydroxyphenyl)-N'-(4-hydroxybenzylidene)acetohydrazide]	90.4	210	
O=C(Cc1ccc(O)c(O)c1)NN=Cc1ccc(O)cc1O [Compound 4, N'-(2,4-dihydroxybenzylidene)-2-(3,4-dihydroxyphenyl)acetohydrazide]	95.7	198	
COc1ccc(C=NNC(=O)Cc2ccc(O)c(O)c2)cc1 [Compound 13, 2-(3,4-dihydroxyphenyl)-N'-(4-methoxybenzylidene)acetohydrazide]	95.2	198	
O=C(Cc1ccc(O)c(O)c1)NN=Cc1cccc([N+](=O)[O-])c1 [Compound 25, 2-(3,4-dihydroxyphenyl)-N'-(3-nitrobenzylidene)acetohydrazide]	78.2	206	
COc1cc(C=NNC(=O)Cc2ccc(O)c(O)c2)ccc1O [Compound 6, 2-(3,4-dihydroxyphenyl)-N'-(4-hydroxy-3-methoxybenzylidene)acetohydrazide]	86.4	189	
O=C(Cc1ccc(O)c(O)c1)NN=Cc1ccccc1O [Compound 1, (3,4-dihydroxyphenyl)-N'-(2-hydroxybenzylidene)acetohydrazide]	86.3	164	
Cc1ccc(C=NNC(=O)Cc2ccc(O)c(O)c2)cc1 [Compound 16, 2-(3,4-dihydroxyphenyl)-N'-(4-methylbenzylidene)acetohydrazide]	84.1	201	
O=Cc1ccc(C=NNC(=O)Cc2ccc(O)c(O)c2)cc1 [Compound 26, 2-(3,4-dihydroxyphenyl)-N'-(4-formylbenzylidene)acetohydrazide]		204	
O=C(Cc1ccc(O)c(O)c1)NN=Cc1c(Cl)cccc1Cl [Compound 22, N'-(2,6-dichlorobenzylidene)-2-(3,4-dihydroxyphenyl)acetohydrazide]		262	no inhibitory activity
CCOc1ccc(C=NNC(=O)Cc2ccc(O)c(O)c2)c(O)c1 [Compound 10, 2-(3,4-dihydroxyphenyl)-N'-(4-ethoxy-2-hydroxybenzylidene)acetohydrazide]	81.9	164	
O=C(Cc1ccc(O)c(O)c1)NN=Cc1ccc(O)c(O)c1O [Compound 5, 2-(3,4-dihydroxyphenyl)-N'-(2,3,4-trihydroxybenzylidene)acetohydrazide]	96.1	212	
CCOc1cc(C=NNC(=O)Cc2ccc(O)c(O)c2)ccc1O [Compound 9, 2-(3,4-dihydroxyphenyl)-N'-(3-ethoxy-4-hydroxybenzylidene)acetohydrazide]	83.3	184	
O=C(Cc1ccc(O)c(O)c1)NN=Cc1ccco1 [Compound 27, 2-(3,4-dihydroxyphenyl)-N'-(furan-2-ylmethylene)acetohydrazide]		156	
O=C(Cc1ccc(O)c(O)c1)NN=Cc1ccc(Cl)cc1 [Compound 19, N'-(4-chlorobenzylidene)-2-(3,4-dihydroxyphenyl)acetohydrazide]	79.4	198	
O=C(Cc1ccc(O)c(O)c1)NN=Cc1cccc(Cl)c1 [Compound 20, N'-(3-chlorobenzylidene)-2-(3,4-dihydroxyphenyl)acetohydrazide]	84.4	196	
O=C(Cc1ccc(O)c(O)c1)NN=Cc1ccccc1Cl [Compound 18, N'-(2-chlorobenzylidene)-2-(3,4-dihydroxyphenyl)acetohydrazide]	85.3	164	
COc1cccc(C=NNC(=O)Cc2ccc(O)c(O)c2)c1O [Compound 7, 2-(3,4-dihydroxyphenyl)-N'-(2-hydroxy-3-methoxybenzylidene)acetohydrazide]	91.7	204	
Cc1ccc(C=NNC(=O)Cc2ccc(O)c(O)c2)cc1O [Compound 11, 2-(3,4-dihydroxyphenyl)-N'-(3-hydroxy-4-methylbenzylidene)acetohydrazide]	77.5	210	
O=C(Cc1ccc(O)c(O)c1)NN=Cc1ccc([N+](=O)[O-])cc1 [Compound 23, 2-(3,4-dihydroxyphenyl)-N'-(4-nitrobenzylidene)acetohydrazide]	80.9	201	
